Data on 20 molecules can be found in PubChem BioAssay AID328 (DTP/NCI, 2004).

“And” between values parts separate entries of the source, which are not always exact repeats. Equal entries are not always repeated. Inconclusive results and toxic doses are left out.

The test system of the assay is BDF1 mice, P388 leukemia ip, median survival T/C. Briefly: NCI In Vivo Anticancer Drug Screen. Data for tumor model P388 Leukemia (intraperitoneal) in B6D2F1 (BDF1) mice. The settings on record: endpoint: median survival time, higher = longer survival. The method, boiled down:
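Survival ratio, drug arm over vehicle arm, in mice with a transplanted tumour.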

[1] abbreviates: dose: 50.0 mg/kg/injection, schedule: Q01DX009 (ip), vehicle: saline with Tween-80.
Setting [2] is: dose: 100.0 mg/kg/injection, schedule: Q01DX009 (ip), vehicle: saline with Tween-80.
Where [3] appears, read: dose: 100.0 mg/kg/injection, schedule: Q04DX003 (ip), vehicle: saline with Tween-80.
Setting [4] is: dose: 200.0 mg/kg/injection, schedule: Q04DX003 (ip), vehicle: saline with Tween-80.
Where [5] appears, read: dose: 100.0 mg/kg/injection, schedule: Q01DX009 (ip), vehicle: saline.
The mark [6] stands for this setting: dose: 200.0 mg/kg/injection, schedule: Q01DX009 (ip), vehicle: saline.
The mark [7] stands for this setting: dose: 50.0 mg/kg/injection, schedule: Q04DX003 (ip), vehicle: saline with Tween-80.
Setting [8] is: dose: 200.0 mg/kg/injection, schedule: Q01DX009 (ip), vehicle: saline with Tween-80.
Where [9] appears, read: dose: 400.0 mg/kg/injection, schedule: Q04DX003 (ip), vehicle: saline with Tween-80.
The mark [10] stands for this setting: dose: 100.0 mg/kg/injection, schedule: Q04DX003 (ip), vehicle: Klucel (hydroxypropylcellulose) (HPC).
Where [11] appears, read: dose: 200.0 mg/kg/injection, schedule: Q04DX003 (ip), vehicle: Klucel (hydroxypropylcellulose) (HPC).

For the molecule `CCOC(=O)CCC[P+](c1ccccc1)(c1ccccc1)c1ccccc1`, the T/C runs as follows: (dose: 5.0 mg/kg/injection, schedule: Q01DX009 (ip), vehicle: saline with Tween-80) 101 % of control; (dose: 10.0 mg/kg/injection, schedule: Q01DX009 (ip), vehicle: saline with Tween-80) 100 % of control; (dose: 13.2 mg/kg/injection, schedule: Q01DX009 (ip), vehicle: saline with Tween-80) 118 % of control; (dose: 20.0 mg/kg/injection, schedule: Q01DX009 (ip), vehicle: saline with Tween-80) 101 % of control and 122 % of control; (dose: 30.0 mg/kg/injection, schedule: Q01DX009 (ip), vehicle: saline with Tween-80) 118 % of control; under setting [1], 113 % of control. For the same molecule, the T/C is 152 % of control (dose: 75.0 mg/kg/injection, schedule: Q01DX009 (ip), vehicle: saline with Tween-80); 118 % of control under setting [2]; 110 % of control under setting [3]; 121 % of control (dose: 160.0 mg/kg/injection, schedule: Q01DX009 (ip), vehicle: saline with Tween-80); 115 % of control under setting [4].
For the molecule `CCOC(=O)C(Cc1ccc(N(CCCl)CCCl)cc1)NC(=O)C(Cc1ccc([N+](=O)[O-])cc1)NC(C)=O` (centres undefined), the T/C is 105 % of control (dose: 5.0 mg/kg/injection, schedule: Q04DX003 (ip), vehicle: other); 96 % of control (dose: 10.0 mg/kg/injection, schedule: Q04DX003 (ip), vehicle: other); 99 % of control (dose: 20.0 mg/kg/injection, schedule: Q04DX003 (ip), vehicle: other); 99 % of control (dose: 40.0 mg/kg/injection, schedule: Q04DX003 (ip), vehicle: other).
As for `C=C1C(=O)O[C@H]2C1[C@H](OC(=O)/C(C)=C\COC(C)=O)C[C@]1(CO1)[C@@H]1[C@H](O)[C@H]3O[C@@]3(C)[C@@H]12` (some centres undefined), the T/C (dose: 3.12 mg/kg/injection, schedule: Q01DX009 (ip), vehicle: other) is 103 % of control; the T/C (dose: 6.25 mg/kg/injection, schedule: Q01DX009 (ip), vehicle: other) is 96 % of control and 120 % of control; the T/C (dose: 12.5 mg/kg/injection, schedule: Q01DX009 (ip), vehicle: other) was 101 % of control; the T/C (dose: 50.0 mg/kg/injection, schedule: Q01DX009 (ip), vehicle: other) is 173 % of control.
For `NC(c1ccccc1)c1c(O)ccc2ccccc12` (centres undefined), the T/C was 103 % of control (dose: 100.0 mg/kg/injection, schedule: Q01DX009 (ip), vehicle: gum acacia); 109 % of control (dose: 100.0 mg/kg/injection, schedule: Q04DX003 (ip), vehicle: gum acacia); 107 % of control (dose: 200.0 mg/kg/injection, schedule: Q01DX009 (ip), vehicle: gum acacia); 122 % of control (dose: 200.0 mg/kg/injection, schedule: Q04DX003 (ip), vehicle: gum acacia); 117 % of control (dose: 400.0 mg/kg/injection, schedule: Q01DX009 (ip), vehicle: gum acacia); 122 % of control (dose: 400.0 mg/kg/injection, schedule: Q04DX003 (ip), vehicle: gum acacia).
Consider `Cc1ccn(C)c(=O)c1`, for which the T/C is, setting by setting: (dose: 25.0 mg/kg/injection, schedule: Q01DX009 (ip), vehicle: saline) 86 % of control; (dose: 50.0 mg/kg/injection, schedule: Q01DX009 (ip), vehicle: saline) 86 % of control; under setting [5], 86 % of control and 100 % of control; under setting [6], 105 % of control.
Regarding `CC(=O)N(C(C)=O)c1cc([N+](=O)[O-])ccc1C`, the T/C under setting [3] is 106 % of control and the T/C under setting [4] is 93 % of control.
For the molecule `CN(C)c1nn2c(-c3ccccc3)nnc2s1`, the T/C is 86 % of control under setting [5]; 90 % of control under setting [6]; 100 % of control (dose: 400.0 mg/kg/injection, schedule: Q01DX009 (ip), vehicle: saline).
Regarding `N=C(N=C(N)N)N1CCOCC1`, the T/C reads like this: under setting [7], 110 % of control; under setting [3], 115 % of control; under setting [4], 105 % of control.
For the molecule `CCN(C(C)C)C(C)C`, the T/C runs as follows: (dose: 25.0 mg/kg/injection, schedule: Q04DX003 (ip), vehicle: saline with Tween-80) 100 % of control; under setting [7], 100 % of control; under setting [3], 100 % of control.
Consider `CC(=O)[C@H]1CC[C@H]2[C@@H]3C[C@H](C)C4=CC(=O)CC[C@]4(C)[C@@]3(F)[C@@H](O)C[C@]12C`, for which the T/C runs as follows: (dose: 25.0 mg/kg/injection, schedule: Q01DX009 (ip), vehicle: saline with Tween-80) 118 % of control; under setting [1], 109 % of control; under setting [2], 104 % of control and 109 % of control.
For the molecule `CN(Cc1ccccc1)c1ccc(/C=C/c2ccnc3ccccc23)cc1`, the T/C was 93 % of control (dose: 12.5 mg/kg/injection, schedule: Q01DX001 (ip), vehicle: saline with Tween-80); 89 % of control (dose: 25.0 mg/kg/injection, schedule: Q01DX001 (ip), vehicle: saline with Tween-80); 88 % of control (dose: 50.0 mg/kg/injection, schedule: Q01DX001 (ip), vehicle: saline with Tween-80); 93 % of control (dose: 100.0 mg/kg/injection, schedule: Q01DX001 (ip), vehicle: saline with Tween-80); 94 % of control (dose: 400.0 mg/kg/injection, schedule: Q01DX001 (ip), vehicle: saline with Tween-80).
For `O=c1[nH]cnc2c(Cl)c(C(Cl)(Cl)Cl)nn12` (tested in a mixture with another compound), the T/C runs as follows: under setting [1], 99 % of control; under setting [2], 90 % of control and 103 % of control; under setting [3], 111 % of control; under setting [8], 99 % of control and 114 % of control; under setting [4], 104 % of control; (dose: 400.0 mg/kg/injection, schedule: Q01DX009 (ip), vehicle: saline with Tween-80) 93 % of control and 112 % of control. Also, the T/C under setting [9] is 102 % of control.
Regarding `O=C1OC2=C(Cl)C=CC=CC2C12C1C=CC=CC12` (centres undefined), the T/C reads like this: under setting [1], 113 % of control; under setting [2], 110 % of control; under setting [8], 107 % of control.
Turning to `CCOC(=O)/C(C#N)=C/N=c1ncccn1C`, the T/C was 98 % of control under setting [3], 93 % of control under setting [4] and 102 % of control under setting [9].
`CCC(C(OC(=O)Nc1ccc(Cl)c(Cl)c1)c1ccc(Cl)cc1)C(O)(C(F)(F)F)C(F)(F)F` (centres undefined): the T/C by setting is: under setting [10], 100 % of control; under setting [11], 95 % of control; (dose: 400.0 mg/kg/injection, schedule: Q04DX003 (ip), vehicle: Klucel (hydroxypropylcellulose) (HPC)) 91 % of control.
As to `CC(=O)N(O)CCCC1NC(=O)C(CCCN(O)C(C)=O)NC1=O` (centres undefined), the T/C runs as follows: (dose: 100.0 mg/kg/injection, schedule: Q01DX001 (ip), vehicle: saline) 90 % of control; (dose: 200.0 mg/kg/injection, schedule: Q01DX001 (ip), vehicle: saline) 90 % of control; (dose: 400.0 mg/kg/injection, schedule: Q01DX001 (ip), vehicle: saline) 95 % of control.
Turning to `CN1/C(=C/C=C/N=C(C#N)C#N)C(C)(C)c2ccccc21`, the T/C under setting [1] was 104 % of control, the T/C under setting [2] is 96 % of control and the T/C under setting [8] was 96 % of control.
With `Cc1ccc2c(ccc(/C=C/c3ccc(O)c4ncccc34)[n+]2C)c1`, the T/C (dose: 75.0 mg/kg/injection, schedule: Q01DX009 (ip), vehicle: Klucel (hydroxypropylcellulose) (HPC)) was 104 % of control.
As for `N#Cc1nc2c(nc1C#N)-c1ccccc1C2=O`, the T/C was 100 % of control (dose: 6.0 mg/kg/injection, schedule: Q01DX009 (ip), vehicle: Klucel (hydroxypropylcellulose) (HPC)); 100 % of control (dose: 6.25 mg/kg/injection, schedule: Q04DX003 (ip), vehicle: Klucel (hydroxypropylcellulose) (HPC)); 107 % of control (dose: 12.0 mg/kg/injection, schedule: Q01DX009 (ip), vehicle: Klucel (hydroxypropylcellulose) (HPC)); 108 % of control (dose: 12.5 mg/kg/injection, schedule: Q04DX003 (ip), vehicle: Klucel (hydroxypropylcellulose) (HPC)); 104 % of control (dose: 25.0 mg/kg/injection, schedule: Q04DX003 (ip), vehicle: Klucel (hydroxypropylcellulose) (HPC)).
With `COc1cc(OC)cc(C(N)=O)c1`, the T/C was 100 % of control (dose: 50.0 mg/kg/injection, schedule: Q04DX003 (ip), vehicle: Klucel (hydroxypropylcellulose) (HPC)); 95 % of control under setting [10]; 100 % of control under setting [11].
